Test system: pregnancy maintenance (peripheral gestagenic activity)
Assay: pregnancy maintenance test in ovariectomized rats
Assay type: in vivo, rat
Conditions: ovariectomized pregnant rats, subcutaneous once daily with estrone 5 μg/kg/day, day 8 to day 15 or 21
Excerpt: Executing the Pregnancy Maintenance Test in Rats:
In pregnant rats, removal of the corpora lutea or castration induces abortion. By exogenous supplying of progestins (gestagens) in combination with a suitable dose of estrogens, pregnancy can be maintained. The pregnancy maintenance test in ovariectomized rats serves to determine peripheral gestagenic activity of a compound.
Rats are paired up during the proestrus overnight. Mating is monitored on the morning of the following day by vaginal smear inspection. The presence of sperm is considered in this case as day 1 of the beginning of pregnancy. On day 8 of pregnancy, the animals are ovariectomized under ether anesthesia. […]
At the end of the test (day 15 or day 21), the animals are sacrificed under CO2 atmosphere, and live fetuses (fetuses with beating hearts) and implantation sites (early resorptions and dead fetuses including autolysis and atrophic placentas) in both uterine horns are counted. […] In uteri without fetuses or implantation sites, the number of nidation sites is determined by staining with 10% ammonium sulfide solution. The pregnancy maintenance rate is calculated as the quotient of the number of living fetuses and the total number of nidation sites (both resorbed and dead fetuses as well as nidation sites). […]

## CCC12CCC3C4CCC(=O)C=C4C4CC4C3C1C1CC1C21CCC(=O)O1 (stereo not drawn) [compound 3a, 18-Methyl-6α,7α-15β,16β-dimethylene-3-oxo-19-nor-17-pregn-4-ene-21,17-carbolactone]
  pregnancy-maintaining dose (ED50): 120 µg/kg/day
